Measurements: patent US7557123B2, “Heterocyclic compound and medicinal use thereof” (Kyoto Pharmaceutical Industries, Ltd., priority 2001, dated 2009)

Key:
male KK-A^y mice = assay: Hypoglycemic and hypolipidemic activity in spontaneously diabetic KK-Ay mice; format: in vivo; settings: 10 mg/kg/day orally for 4 consecutive days, plasma 24 hours after final administration, non-fasting, vs control group
Experimental: Blood was drawn under a non-fasting state from the tail vein of male KK-A^y mice, and the glucose and triglyceride levels of the plasma were measured using commercially available assay kits (glucose CII-test WAKO and triglyceride G-test WAKO, Wako Pure Chemical Industries, Ltd.). The mice were grouped (5 mice per group) into a control group and an administration group, such that the mean and standard deviation of the body weight and the plasma glucose and plasma triglyceride levels in each group were nearly the same. The test compounds (compounds of Examples 1, 2, 4, 8, 20, 22, 24, 27, 30, 33, 36, 37, 40, 45, 47, 52, 56, 58 and 64) were suspended in 5% gum arabic solution and administered (10 mg/kg/day) orally to the administration group for 4 consecutive days. The 5% gumarabic solution was orally administered to the control group. Blood was drawn under a non-fasting state from the tail vein 24 hours after the final administration and the glucose and triglyceride levels of the plasma were measured. The decrease in the plasma glucose and triglyceride levels was calculated from the following formula. Decrease (%)=[(mean of control group−mean of test compound administration group)/mean of control group]×100 Results

male db/db mice = assay: Hypoglycemic and hypolipidemic activity in db/db mice; format: in vivo; settings: 3 mg/kg/day orally for 2 consecutive weeks, plasma 24 hours after final administration, non-fasting, vs control group
Experimental: Using db/db mice genetically showing high plasma glucose, hypertriglyceridemia, insulin resistance and obesity, the pharmacological activity of the test compounds of Examples 1, 2 and 20 was examined.
Blood was drawn under a non-fasting state from the tail vein of male db/db mice, the glucose level and triglyceride level of the plasma were measured using commercially available assay kits (glucose CII-test WAKO and triglyceride G-test WAKO, Wako Pure Chemical Industries, Ltd.). The mice were grouped (6 mice per group) into a control group and test compound (compounds of Examples 1, 2 and 20) administration group (3 mg/kg/day), such that the mean and standard deviation of the body weight and the plasma glucose and plasma triglyceride levels in each group were nearly the same. The test compound was suspended in 0.5% methylcellulose solution and administered orally for 2 consecutive weeks from the next day. The 0.5% methylcellulose solution was orally administered to the control group. Blood was drawn under a non-fasting state from the tail vein 24 hours after the final administration and the glucose and triglyceride levels of the plasma were measured. The decrease in the plasma glucose and triglyceride levels was calculated from the following formula. Decrease (%)=[(mean of control group−mean of test compound administration group)/mean of control group]×100 Results

[1] = Solubility of the compound in water (buffer pH 7.0); format: physicochemical
Experimental: The pulverized test compound (compounds of Examples 2, 20, 22, 24, 27, 30, 40 or 65, 25 mg) was added to a buffer (1.0 ml, pH 7.0) and the mixture was shaken at 25° C. for 1 hr and passed through a membrane filter. The concentration of the test compound in the filtrate was measured by high performance liquid chromatography.

[2] = 25 mg in 1.0 ml buffer pH 7.0, shaken at 25° C. for 1 hr, filtrate by HPLC

Structure (SMILES)	Decrease (%) in glucose level (male KK-A^y mice) [%]	Decrease (%) in triglyceride level (male KK-A^y mice) [%]	further results
CCC/C=C/c1nc(CCOc2ccc3c(c2)CN(C(=O)C=CCCCC)[C@H](C(=O)[O-])C3)c(C)o1.[Na+] (stereo in doubt) [Example 1, sodium 2-(2-heptenoyl)-7-[2-(5-methyl-2-(trans-1-penten-1-yl)oxazol-4-yl)ethoxy]-1,2,3,4-tetrahydroisoquinoline-(3S)-carboxylate]	46.1	45.3	Decrease (%) in glucose level (male db/db mice): 21.3%; Decrease (%) in triglyceride level (male db/db mice): 62.7%
CCCC#CC(=O)N1Cc2cc(OCCc3nc(/C=C/CCC)oc3C)ccc2C[C@H]1C(=O)O (stereo in doubt) [Example 4, 2-(2-hexynoyl)-7-[2-(5-methyl-2-(trans-1-penten-1-yl)oxazol-4-yl)ethoxy]-1,2,3,4-tetrahydroisoquinoline-(3S)-carboxylic acid]	40.3	40.5	–
CC(C)(C)N.CC=CC=CC(=O)N1Cc2cc(OCCc3nc(/C=C/C4CCCC4)oc3C)ccc2C[C@H]1C(=O)O (stereo in doubt) [Example 22, tert-butylamine 7-{2-[2-(trans-2-cyclopentylvinyl)-5-methyloxazol-4-yl]ethoxy}-2-(2,4-hexadienoyl)-1,2,3,4-tetrahydroisoquinoline-(3S)-carboxylate]	45.3	51.4	Solubility (mg/ml) [1, 2]: 25 or above mg/ml
CC(C)(C)N.CCCCC=CC(=O)N1Cc2cc(OCCc3nc(/C=C/CC(C)C)oc3C)ccc2C[C@H]1C(=O)O (stereo in doubt) [Example 24, tert-butylamine-2-(2-heptenoyl)-7-{2-[5-methyl-2-(4-methyl-trans-1-penten-1-yl)oxazol-4-yl]ethoxy}-1,2,3,4-tetrahydroisoquinoline-(3S)-carboxylate]	52.8	50.7	Solubility ([1]; pH 7): 18.7 mg/mL
CC(C)(C)N.CC=CC=CC(=O)N1Cc2cc(OCCc3nc(/C=C/CCCC)oc3C)ccc2C[C@H]1C(=O)O (stereo in doubt) [Example 27, tert-butylamine 2-(2,4-hexadienoyl)-7-{2-[2-(trans-1-hexen-1-yl)-5-methyloxazol-4-yl]ethoxy}-1,2,3,4-tetrahydroisoquinoline-(3S)-carboxylate]	53.4	36.5	Solubility (mg/ml) [1, 2]: 25 or above mg/ml
CC(C)(C)N.CC=CC=CC(=O)N1Cc2cc(OCCc3nc(/C=C/CCC(C)C)oc3C)ccc2C[C@H]1C(=O)O (stereo in doubt) [Example 30, tert-butylamine 2-(2,4-hexadienoyl)-7-{2-[5-methyl-2-(5-methyl-trans-1-hexen-1-yl)oxazol-4-yl]ethoxy}-1,2,3,4-tetrahydroisoquinoline-(3S)-carboxylate]	55.4	57.0	Solubility [1, 2]: 17.3 mg/mL
CC(C)(C)N.CC=CC=CC(=O)N1Cc2cc(OCCc3nc(/C(C)=C/CCC)oc3C)ccc2C[C@H]1C(=O)O (stereo in doubt) [Example 33, tert-butylamine 2-(2,4-hexadienoyl)-7-(2-[5-methyl-2-(1-methyl-trans-1-penten-1-yl)oxazol-4-yl]ethoxy}-1,2,3,4-tetrahydroisoquinoline-(3S)-carboxylate]	58.2	68.3	–
CC(C)(C)N.CC=CC=CC(=O)N1Cc2cc(OCCc3nc(/C(C)=C/CC)oc3C)ccc2C[C@H]1C(=O)O (stereo in doubt) [Example 36, tert-butylamine 2-(2,4-hexadienoyl)-7-{2-[5-methyl-2-(1-methyl-trans-1-buten-1-yl)oxazol-4-yl]ethoxy}-1,2,3,4-tetrahydroisoquinoline-(3S)-carboxylate]	39.8	27.5	–
CCC/C=C/c1nc(CCOc2ccc3c(c2)CN(C(=O)C(F)(F)C(F)(F)F)[C@H](C(=O)O)C3)c(C)o1 (stereo in doubt) [Example 37]	53.2	50.1	–
CC(C)(C)N.CC=CC=CC(=O)N1Cc2cc(OCCc3nc(/C=C/C4CCCCC4)oc3C)ccc2C[C@H]1C(=O)O (stereo in doubt) [Example 40]	54.3	37.0	Solubility [1, 2]: 18.7 mg/mL
CC(C)(C)N.CC=CC=CC(=O)N1Cc2cc(OCCc3nc(/C=C/CC(C)(C)C)oc3C)ccc2C[C@H]1C(=O)O (stereo in doubt) [Example 45, tert-butylamine 7-{2-[2-(4,4-dimethyl-trans-1-penten-1-yl)-5-methyloxazol-4-yl]ethoxy)-2-(2,4-hexadienoyl)-1,2,3,4-tetrahydroisoquinoline-(3S)-carboxylate]	38.7	32.6	–
CC(C)(C)N.CCC/C=C/c1nc(CCOc2ccc3c(c2)CN(C(=O)C=CCC(C)C)[C@H](C(=O)O)C3)c(C)o1 (stereo in doubt) [Example 47, tert-butylamine 2-(5-methyl-2-hexenoyl)-7-(2-[5-methyl-2-(trans-1-penten-1-yl)oxazol-4-yl]ethoxy}-1,2,3,4-tetrahydroisoquinoline-(3S)-carboxylate]	29.9	10.9	–
CC(C)(C)N.CCC/C=C/c1nc(CCOc2ccc3c(c2)CN(C(=O)C(F)(F)CC)[C@H](C(=O)O)C3)c(C)o1 (stereo in doubt) [Example 52, tert-butylamine 2-(2,2-difluorobutyryl)-7-{2-[5-methyl-2-(trans-1-penten-1-yl)oxazol-4-yl]ethoxy}-1,2,3,4-tetrahydroisoquinoline-(3S)-carboxylate]	26.6	19.1	–
CC(C)(C)N.CC=CC=CC(=O)N1Cc2cc(OCCc3nc(/C=C/C4(C)CCCCC4)oc3C)ccc2C[C@H]1C(=O)O (stereo in doubt) [Example 56]	21.0	11.9	–
C=CCCCN1Cc2cc(OCCc3nc(/C=C/CC(C)C)oc3C)ccc2C[C@H]1C(=O)O (stereo in doubt) [Example 58, 7-{2-[5-methyl-2-(4-methyl-trans-1-penten-1-yl)oxazol-4-yl]ethoxy}-2-(4-pentenyl)-1,2,3,4-tetrahydroisoquinoline-(3S)-carboxylic acid]	25.1	23.2	–
C=CCCN1Cc2cc(OCCc3nc(/C=C/CC(C)C)oc3C)ccc2C[C@H]1C(=O)O (stereo in doubt) [Example 64, 2-(3-butenyl)-7-{2-[5-methyl-2-(4-methyl-trans-1-penten-1-yl)oxazol-4-yl]ethoxy}-1,2,3,4-tetrahydroisoquinoline-(3S)-carboxylic acid]	29.4	25.1	–
CC(C)(C)N.CC=CC=CC(=O)N1Cc2cc(OCCc3nc(/C=C/COC)oc3C)ccc2C[C@H]1C(=O)O (stereo in doubt) [Example 65]	–	–	Solubility [1, 2]: 20.5 mg/mL
Cc1oc(C=Cc2ccccc2)nc1CCOc1ccc2c(c1)CN(C(=O)C(F)(F)C(F)(F)F)[C@H](C(=O)O)C2 [Example 8, 7-[2-(5-methyl-2-styryloxazol-4-yl)ethoxy]-2-pentafluoropropionyl-1,2,3,4-tetrahydroisoquinoline-(3S)-carboxylic acid]	57.2	71.1	–
